Common to all, as to format: in vivo, mouse
In one experiment the test system is CSF. Description: Serum colony stimulating factor (CSF) assay in mice. The settings on record: serum 4 hours after injection. Here is the method: Colony forming assays Granulocyte-Macrophage (CFU-GM)--Mice are treated with 150 mg/kg of 5-Fu and treatment with test compound begins 24 hrs. later. On consecutive days, mice are killed by cervical dislocation and the femurs removed under sterile conditions. Femurs are flushed with 1 ml of ice cold medium (Iscove's supplemented with 20% FCS, 1% penicillin-streptomycin, 1% glutamine and 5×10^-5 M 2-mercaptoethanol). Bone marrow cells (5×10^5) are then plated in 12×75 mm tissue culture plates in 3 ml of warm ararose (3%) in Iscove's medium with 100 Units/ml of recombinant mouse GM-CSF purchased from Genzyme (Boston, Mass.). Plates are incubated for 7 days at 37° C. in 5% CO2. After 7 days, colonies of 50 cells or greater are enumerated under a dissecting microscope.
Bone marrow cells are prepared as described above for the CFU-GM assay. The cells are then incubated in soft agar with an 0.3% final concentration of serum taken from mice 4 hours after injection with test compounds. After 7 days of incubation at 37° C., the number of colony forming (CFU) cells per 10^5 plated bone marrow cells is determined by counting colonies of more than 50 cells under a dissecting microscope. The data are reported as CFU/10^5 bone marrow cells.

The subject of another experiment is IL-6. Description: Serum IL-6 production in mice after single s.c. injection (7TD1 bioassay). The settings on record: serum 4 h post injection. Here is the method: Description of Biological Assays Interleukin 6(IL-6) assay for structure function analysis--Test compounds are dissolved in water and administered subcutaneously in 0.2 ml to deliver a dose of 0.1-10 mg/kg. The less soluble compounds are first dissolved in 100% ethanol and then brought to the appropriate concentration in water. Four hours post injection, the mice are bled and the serum is retrieved. The IL-6 dependent cell line 7TDl is used to assay serial dilutions of sera for IL-6 content. 7TDl cells (1×10^4) are placed in microtiter wells and incubated at 37° C. for 72 hours with standard recombinant mouse IL-6 or with dilutions of serum to be tested. Over the last 6 hours, the cells are pulsed with ^3 H-Tdr (μci). Cells are then harvested and the degree of proliferation determined by the uptake of ^3 H-Tdr as measured by liquid scintillation spectrometry. The concentration of IL-6 in serum is calculated from standard curves utilizing recombinant IL-6 from R&D Systems Inc. and are reported in units of IL-6 activity as defined by the manufacturer.

The subject of experiment [1] is neutrophils. Description: Neutrophil recovery in 5-FU treated mice. The settings on record: mouse, in vivo. Here is the method:
Circulating Neutrophil Assay--Mice are treated with 5-FU (150 mg/kg) and beginning 24 hrs. later, treated daily with the test compound. Mice are bled daily by retroorbital puncture in heparinized capillary tubes. Circulating WBC counts are determined by Coulter counter. Blood smears are stained with Wright-Geimsa solution and the percentage circulating neutrophils determined by differential counting under a microscope.
5-Fluorouracil (5-FU) Induced Neutropenia In Mice--Mice are treated ip with 150 mg/kg of the chemotherapy agent 5-FU which induces a severe loss of neutrophils in the peripheral blood 5-6 days later. Twenty-four hrs. after the dose, treatment with the test compounds is initiated. The effect of the test compounds on recovery of neutrophil progenitor cells in the bone marrow is determined by the CFU-GM assay. The recovery of circulating neutrophils is followed by differential staining of the peripheral blood.
*Data from 10 mice/group on day 7 post treatment with 150 mg/kg of 5FU.
Beginning 24 hrs. after 5FU dose, mice were treated daily with test
compound at concentrations indicated. Neutrophil count for normal mice (n
**Mice treated with 5FU and vehicle only.

For experiment [2], the system named is neutrophils. Description: Neutrophil recovery in 5-FU treated mice. The note with it: day 7 post 5FU, n = 6 mice/group, 0 dose 54 ± 22.

As for `CCCCCCC(=O)N[C@@H](C(=O)O)[C@H](C)OC(=O)N[C@@H](CCC[C@@H](N)C(=O)O)C(=O)N[C@H](C)C(=O)O` [Example 29, [S-(R*,S*)]-N-[(R)-6-carboxy-N^2-[[2-carboxy-1-methyl-2-[(1-oxoheptyl)amino]ethoxy]carbonyl]-L-lysyl]-D-Alanine], the “CSF production, CFU/100,000 Bone Marrow Cells” value (“CSF production” below) in the experiment with CSF (0.1 mg/kg) was 0 ± 0 CFU/100,000 Bone Marrow Cells; in the experiment on CSF (1.0 mg/kg), 101 ± 46 CFU/100,000 Bone Marrow Cells. Also, the values for the IL-6 in the experiment with IL-6 (0.1 mg/kg s.c.), in the experiment with IL-6 (1.0 mg/kg s.c.) and with IL-6 (10.0 mg/kg s.c.) were 0 U/ml, 203 U/ml and 537 U/ml, respectively.
On to `CCCCCCC(=O)NC(CNC(=O)N[C@@H](CCCC(N)C(=O)OC)C(=O)N[C@H](C)C(=O)OC)C(=O)O` (stereo partly shown) [Example 82], for which the “CSF production” value in the experiment on CSF (1.0 mg/kg) was 108 ± 11 CFU/100,000 Bone Marrow Cells; in the experiment with CSF (10.0 mg/kg), 115 ± 3 CFU/100,000 Bone Marrow Cells. The IL-6 in the experiment with IL-6 (1.0 mg/kg s.c.) is listed as 2181 ± 92 U/ml; with IL-6 (10.0 mg/kg s.c.), 3188 ± 345 U/ml.
Take `CCCCCCC(=O)NC(CNC(=O)N[C@@H](CCCC(N)C(=O)OC)C(=O)N[C@H](C)C(=O)OC)C(=O)OCc1ccccc1` (stereo partly shown) [Example 80]: the “CSF production” value is listed as 91 ± 3 CFU/100,000 Bone Marrow Cells with CSF (1.0 mg/kg) and 121 ± 9 CFU/100,000 Bone Marrow Cells with CSF (10.0 mg/kg). For the same compound, the IL-6 came out at 1712 ± 168 U/ml with IL-6 (1.0 mg/kg s.c.) and 3624 ± 611 U/ml in the experiment on IL-6 (10.0 mg/kg s.c.).
Consider `CCCCCCC(=O)NC(CNC(=O)N[C@@H](CCCC(N)C(=O)O)C(=O)N[C@H](C)C(=O)O)C(=O)O` (stereo partly shown) [Example 84], for which the figures for the “CSF production” value in the experiment on CSF (0.1 mg/kg), with CSF (1.0 mg/kg) and with CSF (10.0 mg/kg) were 129 ± 14 CFU/100,000 Bone Marrow Cells, 118 ± 15 CFU/100,000 Bone Marrow Cells and 131 ± 10 CFU/100,000 Bone Marrow Cells, respectively. Moreover, the “neutrophil recovery in 5-FU treated mice (in words)” value with neutrophils [1] was “induce neutrophil recovery in 5-FU treated mice”. Moreover, the Neutrophils/cu. mm. is 427 ± 211 /cu. mm in the experiment with neutrophils [2] (1 μg/kg daily), 570 ± 224 /cu. mm with neutrophils [2] (10 μg/kg daily) and 2194 ± 629 /cu. mm in the experiment with neutrophils [2] (100 μg/kg daily). Further, the IL-6 stood at 1963 ± 97 U/ml with IL-6 (0.1 mg/kg s.c.), 3865 ± 688 U/ml with IL-6 (1.0 mg/kg s.c.) and 2512 ± 209 U/ml in the experiment with IL-6 (10.0 mg/kg s.c.).
`CCCCCCC(=O)N[C@H](C(=O)O)[C@@H](C)OC(=O)N[C@@H](CCC[C@@H](N)C(=O)O)C(=O)N[C@H](C)C(=O)O` (relative stereo) [Example 31, R-(R*,S*)]-N-(R)-6-carboxy-N^2-[[2-carboxy-1-methyl-2-[(1-oxoheptyl)amino]ethoxy]carbonyl]-L-lysyl]-D-Alanine] displayed an IL-6 in the experiment with IL-6 (0.1 mg/kg s.c.) of 294 ± 24 U/ml.
Take `CCCCOc1ccc(CC(=O)NC(C(=O)O)C(C)OC(=O)N[C@@H](CCC[C@@H](N)C(=O)O)C(=O)N[C@H](C)C(=O)O)cc1` (stereo partly drawn) [Example 34, N-[N^2-[[2-[[(4-Butoxyphenyl)acetyl]amino]-2-carboxy-1-methylethoxy]carbonyl]-(R)-6-carboxy-L-lysyl]-D-Alanine]: the figures for the IL-6 in the experiment on IL-6 (0.1 mg/kg s.c.) and in the experiment with IL-6 (1.0 mg/kg s.c.) were 3610 ± 347 U/ml and 5063 ± 302 U/ml, respectively.
As to `CCCCCCC(=O)NC(CNC(=O)N[C@@H](CCCC(NC(=O)OC(C)(C)C)C(=O)OC)C(=O)N[C@H](C)C(=O)OC)C(=O)O` (stereo partly drawn) [Example 81, N-N^2-[[[2-carboxy-2-[(1-oxoheptyl)amino]ethyl]amino]carbonyl]-N^6-[(1,1-dimethylethoxy)carbonyl]-6-(methoxycarbonyl)-L-lysyl-D-alanine methyl ester], the “CSF production” value with CSF (1.0 mg/kg) is 69 ± 14 CFU/100,000 Bone Marrow Cells; in the experiment on CSF (10.0 mg/kg) it was 101 ± 7 CFU/100,000 Bone Marrow Cells. The results for the IL-6 in the experiment with IL-6 (1.0 mg/kg s.c.) and with IL-6 (10.0 mg/kg s.c.) were 56 ± 19 U/ml and 199 ± 23 U/ml, respectively.
Turning to `CCCCCCC(=O)N[C@H](C(=O)O)[C@H](C)OC(=O)N[C@@H](CCC[C@@H](N)C(=O)O)C(=O)N[C@H](C)C(=O)O` [Example 30, [S-(R*,R*)]-N-(R)-6-carboxy-N^2-[[2-Carboxy-1-methyl-2-[(1-oxoheptyl)amino]ethoxy]carbonyl]-L-lysyl]-D-Alanine], the IL-6 in the experiment on IL-6 (0.1 mg/kg s.c.) came out at 328 ± 107 U/ml.
Turning to `CCCCCC1CCC(C(=O)NC(C(=O)O)C(C)OC(=O)N[C@@H](CCC[C@@H](N)C(=O)O)C(=O)N[C@H](C)C(=O)O)CC1` (stereo partly drawn) [Example 33, [(R)-6-Carboxy-N^2-[[2-carboxy-1-methyl-2-[[(4-pentylcyclohexyl)carbonyl]amino]ethoxy]carbonyl]-L-lysyl]-D-Alanine], the IL-6 in the experiment with IL-6 (0.1 mg/kg s.c.) worked out at 1651 ± 100 U/ml; with IL-6 (1.0 mg/kg s.c.) it was 3767 ± 457 U/ml.
Consider `CCCCCCC(=O)NC(CNC(=O)N[C@@H](CCCC(NC(=O)OC(C)(C)C)C(=O)O)C(=O)N[C@H](C)C(=O)O)C(=O)O` (stereo partly shown) [Example 83], for which the “CSF production” value in the experiment with CSF (1.0 mg/kg) is recorded as 204 ± 9 CFU/100,000 Bone Marrow Cells; in the experiment with CSF (10.0 mg/kg) it was 123 ± 22 CFU/100,000 Bone Marrow Cells. Besides, the IL-6 is on record as 332 ± 38 U/ml in the experiment on IL-6 (1.0 mg/kg s.c.) and 1818 ± 243 U/ml in the experiment on IL-6 (10.0 mg/kg s.c.).

Source of the values: patent publication US5312831A, “Urethanes and ureas that induce cytokine production” (American Cyanamid Company, priority 1993, dated 1994).
